# Test results published in ChEMBL document CHEMBL1201862, “PubChem BioAssay data set” (2004).
# Calls of active or inactive are those of the source.
# Tests used:
# [1] = target: T1, Short transient receptor potential channel 4 (Mus musculus, UniProt Q9QUQ5); assay: mouse TRPC4 channel inhibitors, dose response, cell-based, HEK293 TRPC4/mu-opioid, Fluo-4 calcium (AID 434942); format: functional;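 also: potency of inhibitors blocking the TRPC4 calcium response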
# T1 sequence (Q9QUQ5 whole entry): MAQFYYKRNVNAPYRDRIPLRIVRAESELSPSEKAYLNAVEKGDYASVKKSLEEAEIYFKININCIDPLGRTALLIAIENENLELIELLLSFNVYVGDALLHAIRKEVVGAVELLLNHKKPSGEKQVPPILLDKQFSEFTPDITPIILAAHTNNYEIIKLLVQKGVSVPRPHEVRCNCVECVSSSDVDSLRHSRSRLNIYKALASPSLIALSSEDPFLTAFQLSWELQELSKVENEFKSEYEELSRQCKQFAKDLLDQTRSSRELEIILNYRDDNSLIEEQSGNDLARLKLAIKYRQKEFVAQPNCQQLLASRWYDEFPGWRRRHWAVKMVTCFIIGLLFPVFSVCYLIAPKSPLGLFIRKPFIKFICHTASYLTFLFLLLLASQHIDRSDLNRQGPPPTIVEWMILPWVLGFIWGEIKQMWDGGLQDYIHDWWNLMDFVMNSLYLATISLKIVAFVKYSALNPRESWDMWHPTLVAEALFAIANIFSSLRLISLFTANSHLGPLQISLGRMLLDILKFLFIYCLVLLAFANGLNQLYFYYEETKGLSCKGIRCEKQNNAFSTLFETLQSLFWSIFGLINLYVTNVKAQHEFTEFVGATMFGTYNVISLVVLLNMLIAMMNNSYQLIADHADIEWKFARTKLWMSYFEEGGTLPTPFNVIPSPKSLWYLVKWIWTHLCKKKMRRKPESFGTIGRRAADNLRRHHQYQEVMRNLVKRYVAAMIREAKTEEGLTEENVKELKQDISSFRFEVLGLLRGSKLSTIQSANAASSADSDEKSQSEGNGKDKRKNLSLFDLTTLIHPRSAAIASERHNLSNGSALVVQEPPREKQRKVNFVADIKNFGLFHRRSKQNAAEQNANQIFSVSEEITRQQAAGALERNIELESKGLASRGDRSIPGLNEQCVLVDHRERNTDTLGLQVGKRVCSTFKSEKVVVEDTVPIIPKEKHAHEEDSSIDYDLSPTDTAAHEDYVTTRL
# Streptokinase A = target: T2, Streptokinase A (Streptococcus pyogenes serotype M1, UniProt P10520); assay: S. pyogenes streptokinase expression inhibitors, potency, dose response, plasminogen activation absorbance, OD405 (AID 1914); format: functional, Streptococcus pyogenes M1 GAS;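 also: secreted streptokinase activity via plasminogen activation per viability signal from cell pellet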
# T2 sequence (P10520 whole entry): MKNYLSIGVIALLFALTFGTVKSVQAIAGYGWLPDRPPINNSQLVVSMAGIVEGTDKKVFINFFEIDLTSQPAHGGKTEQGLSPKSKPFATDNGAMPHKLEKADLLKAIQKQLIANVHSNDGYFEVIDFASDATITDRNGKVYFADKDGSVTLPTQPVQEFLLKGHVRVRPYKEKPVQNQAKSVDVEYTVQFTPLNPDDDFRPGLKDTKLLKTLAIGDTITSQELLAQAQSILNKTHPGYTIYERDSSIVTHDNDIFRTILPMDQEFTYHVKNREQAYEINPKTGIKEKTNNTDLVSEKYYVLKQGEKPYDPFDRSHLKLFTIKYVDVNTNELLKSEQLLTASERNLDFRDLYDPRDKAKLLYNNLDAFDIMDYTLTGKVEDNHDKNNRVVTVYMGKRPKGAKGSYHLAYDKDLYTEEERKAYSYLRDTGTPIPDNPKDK
# Vero = Vero cell cytotoxicity, cytotoxicity control for flavivirus capping enzyme inhibitors (AID 588742); format: functional; conditions: Chlorocebus sabaeus
Structure (SMILES),EC50 [1],EC50 (Streptokinase A),CC50 (Vero)
Cc1cccc(C)c1-n1cccc1/C=C1\SC(=S)N(c2cccc(C(=O)O)c2)C1=O,3.35 µM (active),3.8 µM (active),
COc1ccc(/C=N/Nc2cc(N3CCCC3)nc(N3CCCC3)n2)cc1,,,24.7 µM (active)
